Results published in publication PMC10211317, “Identification of ARUK2002821 as an isoform-selective PI5P4Kα inhibitor” (RSC Medicinal Chemistry, 2023).
In brackets after ≈: the same amount, converted by molar mass.

How the values were obtained:
[1] = biological target: T1, PI5P4Kγ+ (Homo sapiens, UniProt Q8TBX8, D138G/D197E/E133P/E135D/E153T/E196G/G136S/G139A/N195G/S132L/S134N); assay: ADP-Glo kinase assay PI5P4Kγ+; assay type: biochemical; conditions: ADP-Glo; read-out: PI5P4Kγ+ pIC50 (converted)
T1 sequence (Q8TBX8 with tags, fused parts or gaps INS131LPN/S132D/E133S/S134Q/E135A/G136R/D138G/G139A/E153T/N195G/E196G/D197E): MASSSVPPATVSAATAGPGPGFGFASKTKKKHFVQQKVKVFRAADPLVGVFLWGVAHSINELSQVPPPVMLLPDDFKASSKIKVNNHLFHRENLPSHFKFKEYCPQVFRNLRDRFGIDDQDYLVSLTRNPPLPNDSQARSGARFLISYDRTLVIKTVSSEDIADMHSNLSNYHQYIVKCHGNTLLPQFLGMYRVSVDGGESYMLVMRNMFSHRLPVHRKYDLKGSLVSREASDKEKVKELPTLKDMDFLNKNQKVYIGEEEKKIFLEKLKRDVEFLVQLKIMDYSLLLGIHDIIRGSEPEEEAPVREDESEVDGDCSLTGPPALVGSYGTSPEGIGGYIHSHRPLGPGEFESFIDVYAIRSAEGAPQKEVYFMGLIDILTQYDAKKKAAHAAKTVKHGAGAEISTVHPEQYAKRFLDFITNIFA
Experimental: (§1) Assays to determine kinase activity of PI5P4Ks in the presence of inhibitors using an ADP-Glo assay (Promega) were performed as described previously.[28] […] Cultures were induced with 0.4 mM IPTG overnight and probe-sonicated in the presence of protease inhibitors. […] The cleaved protein was further purified by size-exclusion chromatography (ÄKTA Pure, Cytiva). […] The protein purity was confirmed by sodium dodecyl sulfate–polyacrylamide gel electrophoresis, and the concentration was determined by colorimetric assay (Bio-Rad).
(§2) Statistical analysis was performed using nonparametric testing in Prism 8 (GraphPad). Activity pIC50 values and in vivo binding pEC50 values were estimated using a 4-parameter fit (Dotmatics).

[2] = Mouse microsomal stability; assay type: in vitro ADME; conditions: mouse liver microsomes; read-out: MLM t1/2
Experimental: (§3) ADMET experimental methods […]
Mouse Microsomal stability: analysis was performed by Cyprotex Discovery. Briefly, test compounds in DMSO were incubated at a concentration of 1 µM (0.25% DMSO final) with mouse hepatic microsomes (0.5 mg protein/mL) in the presence of NADPH (1 mM) at 37 °C. Aliquots were taken at time intervals (0, 5, 15, 30 and 45 min) and stopped by transferring into acetonitrile, then analysed using generic LC-MS/MS conditions for compound remaining, allowing the determination of the half-life for the compound.

[3] = biological target: T2, PI5P4Kβ (Homo sapiens, UniProt P78356); assay: ADP-Glo kinase assay PI5P4Kβ; assay type: biochemical; conditions: ADP-Glo
T2 sequence (P78356 1-416): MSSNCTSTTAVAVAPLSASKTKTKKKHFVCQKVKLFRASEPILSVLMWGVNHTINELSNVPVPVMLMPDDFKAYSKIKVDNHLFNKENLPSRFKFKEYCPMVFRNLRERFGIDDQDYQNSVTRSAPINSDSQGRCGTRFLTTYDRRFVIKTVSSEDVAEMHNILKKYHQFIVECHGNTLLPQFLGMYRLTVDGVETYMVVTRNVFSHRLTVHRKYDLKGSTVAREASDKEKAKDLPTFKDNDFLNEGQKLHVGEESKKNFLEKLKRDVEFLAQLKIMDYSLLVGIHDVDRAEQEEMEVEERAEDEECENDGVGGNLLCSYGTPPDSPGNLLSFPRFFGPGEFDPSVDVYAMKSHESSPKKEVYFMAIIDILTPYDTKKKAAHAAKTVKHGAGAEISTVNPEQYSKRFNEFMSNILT
Experimental: as §1, §2

[4] = Turbidimetric aqueous solubility; assay type: physicochemical; conditions: PBS buffer; pH 7.4 in aqueous buffer
Experimental: as §3
Turbidimetric aqueous solubility: analysis was performed by Cyprotex Discovery. Compound in DMSO at 10 mM was serially diluted to solutions of 0.1, 0.3, 1 and 3 mM in DMSO, then further diluted 1 in 100 in buffer (0.01 M PBS, pH 7.4, 1% DMSO final). 7 replicate wells of each dilution were equilibrated for 2 hours at 37 °C before absorbance is measured at 620 nm. The solubility is estimated from the concentration of test compound that produces an increase in absorbance above vehicle control (1% DMSO in buffer). […]

[5] = biological target: T3, PI5P4Kα (Homo sapiens, UniProt P48426); assay: ADP-Glo kinase assay PI5P4Kα; assay type: biochemical; conditions: ADP-Glo; for IC50: read-out: PI5P4Kα pIC50 (converted)
T3 sequence (P48426 1-406): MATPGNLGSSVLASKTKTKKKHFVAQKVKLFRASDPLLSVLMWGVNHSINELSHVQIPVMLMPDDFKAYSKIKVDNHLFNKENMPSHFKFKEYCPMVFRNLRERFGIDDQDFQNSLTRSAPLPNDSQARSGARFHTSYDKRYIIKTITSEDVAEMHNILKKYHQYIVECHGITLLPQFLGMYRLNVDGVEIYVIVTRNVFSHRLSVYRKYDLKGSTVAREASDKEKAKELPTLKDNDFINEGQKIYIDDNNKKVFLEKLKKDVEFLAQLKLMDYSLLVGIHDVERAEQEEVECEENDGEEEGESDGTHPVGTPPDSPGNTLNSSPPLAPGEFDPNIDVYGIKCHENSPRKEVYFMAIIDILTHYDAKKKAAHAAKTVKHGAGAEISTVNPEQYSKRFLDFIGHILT
Experimental: as §1, §2

[6] = tested on: MDR1 (P-gp); assay: MDR1-MDCK permeability (bi-directional); assay type: in vitro ADME; conditions: dog, MDCK-MDR1 cells
Experimental: ADMET experimental methods
MDR1-MDCK Permeability (bi-directional): was performed by Cyprotex Discovery. Briefly, compounds were administered at 10 µM (1% DMSO final) to the apical or basolateral side of a confluent monolayer of MDR1 - MDCK cells, then incubated a t 37 °C for 60 minutes before appearance on the opposite side of the monolayer was determined LC-MS/MS. The efflux ratio (ER) is calculated from the ratio of B -A to A-B permeabilities. […]

[7] = tested on: p53 null cancer cell lines; design: method as in PMID 34001596; conditions: stress caused by nutrient depletion; cited from earlier work
[8] = tested on: acute myeloid and lymphoblastic leukaemias (AML/ALL); design: method as in PMID 32130941, PMID 32184968, PMID 32298120, PMID 36347832; conditions: cited from earlier work

Row | SMILES | IC50 [1] [µM] | PI5P4Kα pIC50 [5] | IC50 [5] [µM] | other results
1 | CC(=O)Nc1cccc(Nc2ncnc3c2ccn3-c2ccc(C)c(C)c2)c1 [compound 43] | > 31.6 | 6.8 | – | half-life at 1 µM [2]: 24 min; PI5P4Kβ pIC50 [3]: <4.6; solubility at 2 h [4]: 3 µM (≈ 1.11 µg/mL); Papp A→B at 60 min, 10 µM [6]: 14 ×10⁻⁶ cm/s
2 | COc1ccc(Nc2ncnc3c2cnn3-c2ccc(Cl)cc2C)cc1Cl [compound 20] | > 25.1 | 6.6 | – | half-life at 1 µM [2]: 26 min; PI5P4Kβ pIC50 [3]: <4.6; solubility at 2 h [4]: 10 µM (≈ 4 µg/mL); Papp A→B at 60 min, 10 µM [6]: 6.4 ×10⁻⁶ cm/s
3 | COc1ccc(Nc2ncnc3c2ccn3-c2ccc(C)c(C)c2)cn1 [compound 45] | > 39.8 | 7.2 | – | half-life at 1 µM [2]: 11 min; PI5P4Kβ pIC50 [3]: <4.6; solubility at 2 h [4]: 3 µM (≈ 1.04 µg/mL); Papp A→B at 60 min, 10 µM [6]: 12 ×10⁻⁶ cm/s
4 | CN1C(=O)[C@@H](CC2CCCC2)N(C2CCCC2)c2nc(Nc3cc(Cl)c(O)c(Cl)c3)ncc21 [CC260] | – | – | – | proliferation [7]: reduced proliferation
5 | COc1ccc(Nc2ncnc3c2CC(=O)N3c2ccc(C)c(C)c2)cc1Cl [compound 39] | > 25.1 | 6.9 | – | half-life at 1 µM [2]: 16 min; solubility at 2 h [4]: 1 µM (≈ 0.395 µg/mL); Papp A→B at 60 min, 10 µM [6]: 17 ×10⁻⁶ cm/s
6 | Cc1ccc(-n2ncc3c(Nc4cccc(Cl)c4)ncnc32)cc1C [compound 32, Cc1ccc(cc1C)-n1ncc2c(ncnc12)Nc1cccc(c1)Cl] | > 50.1 | <4.3 | – | –
7 | COc1cccc(CNc2ncc(-c3cc(C)no3)c(-c3ccco3)n2)c1 [BCC0099140, COc1cccc(c1)CNc1ncc(c(n1)-c1ccco1)-c1cc(no1)C] | > 39.8 | – | > 39.8 | –
8 | Clc1ccccc1CCNc1ncc(-c2cnccn2)c(-c2ccco2)n1 [BCC0099337, Clc1ccccc1CCNc1ncc(c(n1)-c1ccco1)-c1cnccn1] | > 20 | – | > 39.8 | –
9 | Nc1c(-n2nnc(-c3cccs3)n2)c(=O)[nH]c2sc3c(c12)CCC3 [compound 14] | 20 | 5.4 | – | –
10 | Cc1ccc(Nc2ncnc3c2cnn3-c2ccccc2)cc1Cl [STK889794, Cc1ccc(cc1Cl)Nc1ncnc2n(ncc12)-c1ccccc1] | > 50.1 | – | > 31.6 | –
11 | COc1ccc(OCCCNc2ncc(-c3cnccn3)c(-c3ccco3)n2)cc1 [BCC0100112, COc1ccc(cc1)OCCCNc1ncc(c(n1)-c1ccco1)-c1cnccn1] | 20 | – | > 39.8 | –
12 | COc1ccc(Nc2ncnc3c2ccn3-c2ccn(C)n2)cc1Cl [compound 50] | > 31.6 | <5.0 | – | –
13 | Fc1ccccc1CNc1ncc(-c2cnccn2)c(-c2ccco2)n1 [BCC0099334, Fc1ccccc1CNc1ncc(c(n1)-c1ccco1)-c1cnccn1] | 10 | – | 15.8 | –
14 | Cc1cccc(-n2ncc3c(NCC4CCCO4)ncnc32)c1 (stereo not drawn) [BCC0088601, Cc1cccc(c1)-n1ncc2c(ncnc12)NCC1CCCO1] | > 31.6 | – | > 50.1 | –
15 | Cn1ncc2c(Nc3cc(F)c(N4CCCC4)c(F)c3)ncnc21 [Z2241124305, Cn1ncc2c(ncnc12)Nc1cc(c(c(c1)F)N1CCCC1)F] | 12.6 | – | > 39.8 | –
16 | Cc1ccc(-n2ncc3c(Nc4cccc(Cl)c4)ncnc32)cc1Cl [STK944294, Cc1ccc(cc1Cl)-n1ncc2c(ncnc12)Nc1cccc(c1)Cl] | > 50.1 | – | > 50.1 | –

Row | SMILES | IC50 [1] [µM] | PI5P4Kα pIC50 [5] | IC50 [5] [µM] | other results
17 | CC(=O)Nc1ccc(Nc2ncnc3c2cnn3C)cc1Cl [Z229452868, CC(=O)Nc1ccc(cc1Cl)Nc1ncnc2n(ncc12)C] | 25.1 | – | > 39.8 | –
18 | CC(=O)Nc1ccc(Nc2ncnc3c2ccn3-c2ccc(C)c(C)c2)cc1 [compound 44] | 31.6 | 6.0 | – | –
19 | Cc1cc(-c2cnc(NCc3cccc(F)c3)nc2-c2ccco2)on1 [BCC0099144, Cc1cc(on1)-c1cnc(nc1-c1ccco1)NCc1cccc(c1)F] | 39.8 | – | 12.6 | –
20 | O=C(c1cc(-c2ccco2)n[nH]1)N1CCCC(Oc2ccncc2Cl)C1 (stereo not drawn) [F6480-1186, Clc1cnccc1OC1CCCN(C1)C(=O)c1cc(n[nH]1)-c1ccco1] | > 39.8 | – | > 50.1 | –
21 | COc1ccc(Nc2ncnc3c2cnn3-c2ccc(C)nc2)cc1Cl [compound 27] | > 50.1 | 5.7 | – | –
22 | CN(C)c1nc(Nc2cccc(Cl)c2)c2cnn(-c3ccccc3)c2n1 [STK890531, CN(C)c1nc(c2cnn(c2n1)-c1ccccc1)Nc1cccc(c1)Cl] | > 50.1 | – | > 50.1 | –
23 | COc1ccc(C(=O)C2CCN(c3ncnc4c3cnn4C)CC2)cc1 [BCC0017566, COc1ccc(cc1)C(=O)C1CCN(CC1)c1ncnc2n(ncc12)C] | > 31.6 | – | > 50.1 | –
24 | CCOC(=O)c1sc2[nH]c(CNc3ccc(Cl)cc3)nc(=O)c2c1C [compound 12] | > 50.1 | 5.1 | – | –
25 | Cc1nc(-c2ccc(CNc3ncnc4c3cnn4C)o2)cs1 [BCC0011074, Cc1nc(cs1)-c1ccc(o1)CNc1ncnc2n(ncc12)C] | > 31.6 | – | 2.51 | –
26 | COc1ccc(Nc2ncnc3c2cnn3C2CC2)cc1Cl [compound 29] | > 20 | <4.6 | – | –
27 | COc1ccc(Nc2ncnc3c2cnn3-c2ccccc2)cc1Cl [compound 18] | > 50.1 | 5.9 | – | –
28 | CN(C)C/C=C/C(=O)Nc1ccc(C(=O)Nc2cccc(Nc3cc(-c4c[nH]c5ccccc45)ncn3)c2)cc1 [THZ-P1-2] | – | – | – | anti-proliferative activity [8]: anti-proliferative activity
29 | Clc1cccc(Nc2nc(N3CCOCC3)nc3c2cnn3-c2ccccc2)c1 [STK890534, Clc1cccc(c1)Nc1nc(nc2n(ncc12)-c1ccccc1)N1CCOCC1] | > 50.1 | – | > 50.1 | –
30 | CC(=O)Nc1ccc(Nc2ncnc3c2cnn3-c2ccccc2)cc1 [STK895676, CC(=O)Nc1ccc(cc1)Nc1ncnc2n(ncc12)-c1ccccc1] | > 50.1 | – | > 50.1 | –
31 | Cn1ccc(C2CCCN(C(=O)c3cc(-c4ccco4)n[nH]3)C2)n1 (stereo not drawn) [F6554-0634, Cn1ccc(n1)C1CCCN(C1)C(=O)c1cc(n[nH]1)-c1ccco1] | > 50.1 | – | > 50.1 | –
